Our source for the IC50 and EC50 values is patent US20230339915A1 (Vertex Pharmaceuticals Incorporated, priority 2020, published 2023).

In test [1] the target is purified Z-AAT protein from human plasma (Homo sapiens (Human), UniProt P01009, E366K). Briefly: Biochemical Assay (Z-AAT Elastase Activity Assay). To be noted: purified Z-AAT pre-incubated with compound 1 hour, then human neutrophil elastase and fluorescent substrate. Put shortly:
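Purified plasma Z-AAT (20 nM) preincubated with compounds 1 h at room temperature, then 3 nM human neutrophil elastase added in PBS + 0.01% BRIJ35 for 30 min to form suicide complex. Residual elastase activity read immediately by fluorescence after adding 300 μM MeOSuc-AAPV-AMC substrate solution.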

Test [2] concerns the target NL20 human bronchial epithelial cells expressing human Z-AAT (Homo sapiens (Human), UniProt P01009, E366K). Briefly: AAT Function Assay (MSD Assay NL20-SI Cell Line). In kind it is cell-based. To be noted: functionally active AAT (AAT-hNE complex, MSD) in supernatant of NL20 cells expressing human Z-AAT; read-out: NL20 Functional EC50. Summed up: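 Secreted active Z-AAT was measured by MSD electrochemiluminescence: supernatants (45-fold total dilution) were incubated with human neutrophil elastase to form AAT–elastase complexes, captured by goat anti-AAT and detected with labelled anti-elastase. Cells were doxycycline-induced (0.1 μM) NL20 bronchial cells treated with compound overnight; M-AAT standard curve.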

purified Z-AAT protein from human plasma, sequence (P01009 25-418 E366K limits assumed): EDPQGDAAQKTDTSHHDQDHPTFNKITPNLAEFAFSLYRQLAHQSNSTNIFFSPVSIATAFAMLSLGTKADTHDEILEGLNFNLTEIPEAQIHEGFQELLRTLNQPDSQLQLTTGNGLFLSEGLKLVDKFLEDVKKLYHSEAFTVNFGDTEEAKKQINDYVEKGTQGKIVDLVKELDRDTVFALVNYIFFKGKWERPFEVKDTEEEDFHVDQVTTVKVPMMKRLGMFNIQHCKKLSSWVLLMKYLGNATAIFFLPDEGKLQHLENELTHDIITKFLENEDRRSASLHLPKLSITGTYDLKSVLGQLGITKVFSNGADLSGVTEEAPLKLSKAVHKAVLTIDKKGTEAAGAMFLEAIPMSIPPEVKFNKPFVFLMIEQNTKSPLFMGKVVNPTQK
NL20 human bronchial epithelial cells expressing human Z-AAT, sequence (P01009 25-418 E366K limits assumed): as above

What is called IC50 is the concentration that inhibits the measured activity by half. As usually defined, the EC50 is the concentration giving half of the maximal effect. Take `Cc1cc(-n2c(C(C)C)c([C@H]3C[C@@H](C(=O)O)C3)c3c(F)c(O)ccc32)ccc1F` [Compound 90]: the concentration for half-maximal inhibition (IC50) in test [1] was above 5 µM. Also, in test [2], the EC50 was 0.5 to 2 µM.

As for `CC(C)c1c([C@H]2C[C@@H](C(=O)O)C2)c2cc(O)ccc2n1-c1ccc(F)cc1` [Compound 91], the IC50 in test [1] is above 30 µM. The EC50 in test [2] is above 2 µM.

In the case of `CC(C)c1c(C(C)CCC(=O)O)c2cc(O)ccc2n1-c1ccc(F)cc1` (centres unmarked) [Compound 92], in test [1], the IC50 was above 5 µM. For the same compound, the EC50 in test [2] is above 2 µM.

`Cc1cc(-n2c(C3CC3)c([C@H]3C[C@H](C(=O)O)C3)c3cc(O)ccc32)ccc1F` [Compound 93]: in test [1], the IC50 was above 30 µM. In test [2], the EC50 was above 2 µM.

As for `Cc1cc(-n2c(C(C)C)c([C@H]3C[C@@](C)(C(=O)O)C3)c3cc(O)ccc32)ccc1F` [Compound 94], the IC50 in test [1] is above 30 µM. In addition, the EC50 in test [2] was above 2 µM.

As for `Cc1cc(-n2c(C(C)C)c([C@H]3C[C@](C)(C(=O)O)C3)c3cc(O)ccc32)ccc1F` [Compound 95], in test [1], the IC50 is above 5 µM. Besides, the EC50 in test [2] is below 0.5 µM.

As for `Cc1cc(-n2c(C(C)C)c(CCCC(=O)O)c3cc(O)ccc32)ccc1F` [Compound 96], the IC50 in test [1] was above 30 µM. For the same compound, the EC50 in test [2] lay within 0.5 to 2 µM.

For `Cc1cc(-n2c(C(C)C)c(C3CC4(CC(C(=O)O)C4)C3)c3cc(O)ccc32)ccc1F` (centres unmarked) [Compound 97], in test [1], the IC50 was 2 to 5 µM. Further, the EC50 in test [2] was below 0.5 µM.

Turning to `Cc1cc(-n2c(C(C)C)c([C@H]3C[C@@H](C(=O)O)C3)c3cc(O)ccc32)ccc1F` [Compound 98], the IC50 in test [1] is above 30 µM. Besides, the 50% effective concentration (EC50) in test [2] is above 2 µM.

For the compound `Cc1cc(-n2c(C3CCOCC3)c([C@H]3C[C@](C)(C(=O)O)C3)c3cc(O)ccc32)ccc1F` [Compound 99], the IC50 in test [1] was above 5 µM. Moreover, the EC50 in test [2] is 0.5 to 2 µM.

`Cc1cc(-n2c(C3CCOCC3)c([C@H]3C[C@@](C)(C(=O)O)C3)c3cc(O)ccc32)ccc1F` [Compound 100]: the IC50 in test [1] was above 30 µM. The 50% effective concentration (EC50) in test [2] was above 2 µM.

`Cc1cc(-n2c(C3CCOCC3)c(CC3(C(=O)O)CC3)c3cc(O)ccc32)ccc1F` [Compound 103]: the IC50 in test [1] was above 30 µM. In test [2], the EC50 was above 2 µM.

As for `Cc1cc(-n2c(C(C)C)c(CC3(C(=O)O)CC3)c3cc(O)ccc32)ccc1F` [Compound 104], the IC50 in test [1] was above 5 µM. Also, in test [2], the half-maximal effective concentration (EC50) lay within 0.5 to 2 µM.

On to `COC[C@]1(C(=O)O)C[C@H](c2c(C3CCOCC3)n(-c3ccc(F)c(C)c3)c3ccc(O)cc32)C1` [Compound 106, trans-3-(1-(4-fluoro-3-methylphenyl)-5-hydroxy-2-(tetrahydro-2H-pyran-4-yl)-1H-indol-3-yl)-1-(methoxymethyl)cyclobutane-1-carboxylic acid], for which the IC50 in test [1] was above 30 µM. Further, in test [2], the concentration giving a half-maximal response (EC50) was above 2 µM.

On to `COC[C@]1(C(=O)O)C[C@@H](c2c(C3CCOCC3)n(-c3ccc(F)c(C)c3)c3ccc(O)cc32)C1` [Compound 107, cis-3-(1-(4-fluoro-3-methylphenyl)-5-hydroxy-2-(tetrahydro-2H-pyran-4-yl)-1H-indol-3-yl)-1-(methoxymethyl)cyclobutane-1-carboxylic acid], for which the IC50 in test [1] was above 30 µM. Further, the EC50 in test [2] is above 2 µM.

Turning to `Cc1cc(-n2c(C3CCOCC3)c([C@H]3C[C@](CF)(C(=O)O)C3)c3cc(O)ccc32)ccc1F` [Compound 108], the IC50 in test [1] is above 5 µM. Besides, the half-maximal effective concentration (EC50) in test [2] fell in the range of 0.5 to 2 µM.

Consider `Cc1cc(-n2c(C3CCOCC3)c([C@H]3C[C@@](CO)(C(=O)O)C3)c3cc(O)ccc32)ccc1F` [Compound 109], for which the IC50 in test [1] was above 30 µM. In addition, in test [2], the EC50 is above 2 µM.

For the compound `O=C(O)[C@]1(CF)C[C@@H](c2c(C3CCOCC3)n(-c3ccc(F)c(Cl)c3)c3ccc(O)cc32)C1` [Compound 110], the IC50 in test [1] is above 30 µM. Also, the EC50 in test [2] is above 2 µM.

On to `O=C(O)[C@]1(CF)C[C@H](c2c(C3CCOCC3)n(-c3ccc(F)c(Cl)c3)c3ccc(O)cc32)C1` [Compound 111], for which the IC50 in test [1] is above 30 µM. Moreover, the EC50 in test [2] was above 2 µM.

As for `O=C(O)[C@H]1C[C@H](c2c(C3CCOCC3)n(-c3cc(F)cc(F)c3)c3ccc(O)cc32)C1` [Compound 112], the IC50 in test [1] was above 30 µM. For the same compound, in test [2], the EC50 was above 2 µM.

Turning to `O=C(O)[C@H]1C[C@@H](c2c(C3CCOCC3)n(-c3cc(F)cc(F)c3)c3ccc(O)cc32)C1` [Compound 113], the IC50 in test [1] is above 30 µM. Moreover, the 50% effective concentration (EC50) in test [2] was above 2 µM.

For `O=C(O)[C@H]1C[C@H](c2c(C3CCOCC3)n(-c3ccc(F)c(Cl)c3)c3ccc(O)cc32)C1` [Compound 114], the IC50 in test [1] was above 30 µM. The EC50 in test [2] was 0.5 to 2 µM.

Consider `O=C(O)[C@H]1C[C@@H](c2c(C3CCOCC3)n(-c3ccc(F)c(Cl)c3)c3ccc(O)cc32)C1` [Compound 115], for which, in test [1], the IC50 is above 30 µM. The 50% effective concentration (EC50) in test [2] is above 2 µM.

Turning to `O=C(O)[C@H]1C[C@H](c2c(C3CCOCC3)n(-c3ccc(F)c(F)c3)c3ccc(O)cc32)C1` [Compound 116], the IC50 in test [1] was above 30 µM. The EC50 in test [2] is above 2 µM.

Consider `O=C(O)[C@H]1C[C@@H](c2c(C3CCOCC3)n(-c3ccc(F)c(F)c3)c3ccc(O)cc32)C1` [Compound 117], for which the IC50 in test [1] was above 30 µM. In test [2], the half-maximal effective concentration (EC50) was above 2 µM.

In the case of `O=C(O)[C@]1(CF)C[C@@H](c2c(C3CCOCC3)n(-c3ccc(F)cc3)c3ccc(O)cc32)C1` [Compound 118], the IC50 in test [1] was above 30 µM. In addition, in test [2], the EC50 is above 2 µM.

For the compound `O=C(O)[C@]1(CF)C[C@H](c2c(C3CCOCC3)n(-c3ccc(F)cc3)c3ccc(O)cc32)C1` [Compound 119], the IC50 in test [1] was above 30 µM. The EC50 in test [2] is above 2 µM.

With `COC[C@]1(C(=O)O)C[C@@H](c2c(C3CCOCC3)n(-c3ccc(F)c(C)c3)c3ccc(O)cc32)C1` [Compound 121], the IC50 in test [1] is above 30 µM. Moreover, in test [2], the EC50 was above 2 µM.

`Cc1cc(-n2c(C(C)C)c(CCC(=O)O)c3cc(O)ccc32)ccc1F` [Compound 122]: in test [1], the IC50 is above 30 µM. Also, the EC50 in test [2] was in the range of 0.5 to 2 µM.

As to `Cc1cc(-n2c(C3CCOCC3)c([C@H]3C[C@](C(=O)O)(C(F)F)C3)c3cc(O)ccc32)ccc1F` [Compound 123, cis-1-(difluoromethyl)-3-(1-(4-fluoro-3-methylphenyl)-5-hydroxy-2-(tetrahydro-2H-pyran-4-yl)-1H-indol-3-yl)cyclobutane-1-carboxylic acid], in test [1], the IC50 is above 30 µM. The EC50 in test [2] is above 2 µM.

`CC(C)c1c([C@H]2C[C@@H]2C(=O)O)c2cc(O)c(F)cc2n1-c1ccc(F)cc1` [Compound 125]: the IC50 in test [1] was above 30 µM. For the same compound, the concentration for a half-maximal effect (EC50) in test [2] lay in the range of 0.5 to 2 µM.

As to `Cc1cc(-n2c([C@H]3CCCO3)c([C@H]3C[C@@H]3C(=O)O)c3cc(O)ccc32)ccc1F` [Compound 126], the IC50 in test [1] was above 30 µM. The EC50 in test [2] is above 2 µM.

Take `CCc1c([C@H]2C[C@@H]2C(=O)O)c2cc(O)ccc2n1-c1ccc(F)c(C)c1` [Compound 127]: the IC50 in test [1] was above 30 µM. For the same compound, the EC50 in test [2] was above 2 µM.

On to `Cc1cc(-n2c(C(C)C)c([C@H]3C[C@H]3C(=O)O)c3cc(O)ccc32)ccc1F` [Compound 128], for which, in test [1], the IC50 is above 30 µM. The EC50 in test [2] is above 2 µM.

Regarding `Cc1cc(-n2c(C3COC3)c([C@H]3C[C@@H]3C(=O)O)c3cc(O)ccc32)ccc1F` [Compound 131], the concentration for half-maximal inhibition (IC50) in test [1] is above 30 µM. In addition, the EC50 in test [2] is above 2 µM.

Turning to `Cc1cc(-n2c(C3CC3)c([C@H]3C[C@@H]3C(=O)O)c3cc(O)ccc32)ccc1F` [Compound 132], the IC50 in test [1] is above 30 µM. Also, the EC50 in test [2] is above 2 µM.

With `Cc1cc(-n2c(C(C)C)c([C@H]3C[C@@H]3C(=O)O)c3cc(O)ccc32)ccc1F` [Compound 134], in test [1], the IC50 is above 5 µM. Also, in test [2], the concentration for a half-maximal effect (EC50) was in the range of 0.5 to 2 µM.

As to `Cc1cc(-n2c(C(C)C)c([C@@H]3C[C@H]3C(=O)O)c3cc(O)ccc32)ccc1F` [Compound 135], in test [1], the IC50 is above 30 µM. Also, the EC50 in test [2] was above 2 µM.

Consider `O=C(O)[C@H]1CC[C@H](c2c(C3CCOCC3)n(-c3ccc(F)c(F)c3)c3ccc(O)cc32)CC1` [Compound 137], for which the IC50 in test [1] is above 30 µM. Further, in test [2], the EC50 is above 2 µM.

In the case of `O=C(O)[C@H]1CC[C@@H](c2c(C3CCOCC3)n(-c3ccc(F)c(F)c3)c3ccc(O)cc32)CC1` [Compound 138], the IC50 in test [1] is above 30 µM. Besides, the EC50 in test [2] was above 2 µM.

For the compound `Cc1cc(-n2c(C(F)(F)F)c([C@H]3C[C@](C)(C(=O)O)C3)c3cc(O)ccc32)ccc1F` [Compound 139, trans-3-(1-(4-fluoro-3-methylphenyl)-5-hydroxy-2-(trifluoromethyl)-1H-indol-3-yl)-1-methylcyclobutane-1-carboxylic acid], the half-inhibitory concentration (IC50) in test [1] was above 5 µM. In test [2], the half-maximal effective concentration (EC50) was in the range of 0.5 to 2 µM.

With `Cc1cc(-n2c(C(F)(F)F)c(C3CC4(CC(C(=O)O)C4)C3)c3cc(O)ccc32)ccc1F` (centres unmarked) [Compound 140, 6-(1-(4-fluoro-3-methylphenyl)-5-hydroxy-2-(trifluoromethyl)-1H-indol-3-yl)spiro[3.3]heptane-2-carboxylic acid], the IC50 in test [1] was above 5 µM. Moreover, the EC50 in test [2] fell in the range of 0.5 to 2 µM.

With `CC(C)c1c([C@H]2C[C@H](C(=O)O)C2)c2cc(O)ccc2n1-c1ccc(F)c(F)c1` [Compound 141, trans-3-(1-(3,4-difluorophenyl)-5-hydroxy-2-isopropyl-1H-indol-3-yl)cyclobutane-1-carboxylic acid], the IC50 in test [1] was above 5 µM. Besides, in test [2], the EC50 was 0.5 to 2 µM.
